Measured values: PubChem BioAssay (NCI)
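Protocol summary: plate cells (96-well), add compound at 5 concentrations, incubate 48 h, interpolate endpoints linearly. Here, GI50 denotes the concentration required for 50% inhibition of growth. The concentration for full growth arrest is given as TGI.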

What was measured:
Assay in all cases: growth of human tumour cells (NCI), 48 h
786-0 renal = test system: 786-0 renal
A549 NSCLC = test system: A549 NSCLC
ACHN renal = test system: ACHN renal
CAKI-1 renal = test system: CAKI-1 renal
CCRF-CEM leukemia = test system: CCRF-CEM leukemia
COLO 205 colon = test system: COLO 205 colon
DU-145 prostate = test system: DU-145 prostate
EKVX NSCLC = test system: EKVX NSCLC
HCC-2998 colon = test system: HCC-2998 colon
HCT-116 colon = test system: HCT-116 colon
HCT-15 colon = test system: HCT-15 colon
HL-60(TB) leukemia = test system: HL-60(TB) leukemia
HOP-62 NSCLC = test system: HOP-62 NSCLC
HOP-92 NSCLC = test system: HOP-92 NSCLC
HS 578T breast = test system: HS 578T breast
HT29 colon = test system: HT29 colon
IGROV1 ovarian = test system: IGROV1 ovarian
K-562 leukemia = test system: K-562 leukemia
KM12 colon = test system: KM12 colon
M14 melanoma = test system: M14 melanoma
MALME-3M melanoma = test system: MALME-3M melanoma
MCF7 breast = test system: MCF7 breast
MDA-MB-231 breast = test system: MDA-MB-231 breast
MDA-MB-435 = test system: MDA-MB-435
MOLT-4 leukemia = test system: MOLT-4 leukemia
NCI-H226 lung = test system: NCI-H226 lung
NCI-H23 lung = test system: NCI-H23 lung
NCI-H460 lung = test system: NCI-H460 lung
NCI-H522 lung = test system: NCI-H522 lung
NCI/ADR-RES ovarian = test system: NCI/ADR-RES ovarian
OVCAR-3 ovarian = test system: OVCAR-3 ovarian
OVCAR-4 ovarian = test system: OVCAR-4 ovarian
OVCAR-5 ovarian = test system: OVCAR-5 ovarian
OVCAR-8 ovarian = test system: OVCAR-8 ovarian
PC-3 prostate = test system: PC-3 prostate
RPMI-8226 leukemia = test system: RPMI-8226 leukemia
RXF 393 renal = test system: RXF 393 renal
SF-268 CNS = test system: SF-268 CNS
SF-295 CNS = test system: SF-295 CNS
SF-539 CNS = test system: SF-539 CNS
SK-MEL-2 melanoma = test system: SK-MEL-2 melanoma
SK-MEL-28 melanoma = test system: SK-MEL-28 melanoma
SK-MEL-5 melanoma = test system: SK-MEL-5 melanoma
SK-OV-3 ovarian = test system: SK-OV-3 ovarian
SN12C renal = test system: SN12C renal
SNB-19 CNS = test system: SNB-19 CNS
SNB-75 CNS = test system: SNB-75 CNS
SR leukemia = test system: SR leukemia
SW-620 colon = test system: SW-620 colon
T-47D breast = test system: T-47D breast
TK-10 renal = test system: TK-10 renal
UACC-257 melanoma = test system: UACC-257 melanoma
UACC-62 melanoma = test system: UACC-62 melanoma
UO-31 renal = test system: UO-31 renal
A498 renal = test system: A498 renal
BT-549 breast = test system: BT-549 breast
LOX IMVI melanoma = test system: LOX IMVI melanoma
U251 CNS = test system: U251 CNS

Nc1ncc(Cc2nn3c(COc4ccc(Cl)cc4)nnc3s2)s1
TGI (786-0 renal): > 100 µM
TGI (A549 NSCLC): > 100 µM
TGI (ACHN renal): 14 µM
TGI (CAKI-1 renal): > 100 µM
TGI (CCRF-CEM leukemia): > 100 µM
TGI (COLO 205 colon): > 100 µM
TGI (DU-145 prostate): > 100 µM
TGI (EKVX NSCLC): > 100 µM
TGI (HCC-2998 colon): > 100 µM
TGI (HCT-116 colon): > 100 µM
TGI (HCT-15 colon): 19.1 µM
TGI (HL-60(TB) leukemia): > 100 µM
TGI (HOP-62 NSCLC): > 100 µM
TGI (HOP-92 NSCLC): > 100 µM
TGI (HS 578T breast): > 100 µM
TGI (HT29 colon): > 100 µM
TGI (IGROV1 ovarian): > 100 µM
TGI (K-562 leukemia): > 100 µM
TGI (KM12 colon): > 100 µM
TGI (M14 melanoma): > 100 µM
TGI (MALME-3M melanoma): > 100 µM
TGI (MCF7 breast): > 100 µM
TGI (MDA-MB-231 breast): > 100 µM
TGI (MDA-MB-435): > 100 µM
TGI (MOLT-4 leukemia): > 100 µM
TGI (NCI-H226 lung): > 100 µM
TGI (NCI-H23 lung): > 100 µM
TGI (NCI-H460 lung): > 100 µM
TGI (NCI-H522 lung): > 100 µM
TGI (NCI/ADR-RES ovarian): > 100 µM
TGI (OVCAR-3 ovarian): > 100 µM
TGI (OVCAR-4 ovarian): > 100 µM
TGI (OVCAR-5 ovarian): > 100 µM
TGI (OVCAR-8 ovarian): > 100 µM
TGI (PC-3 prostate): > 100 µM
TGI (RPMI-8226 leukemia): > 100 µM
TGI (RXF 393 renal): > 100 µM
TGI (SF-268 CNS): > 100 µM
TGI (SF-295 CNS): > 100 µM
TGI (SF-539 CNS): > 100 µM
TGI (SK-MEL-2 melanoma): > 100 µM
TGI (SK-MEL-28 melanoma): > 100 µM
TGI (SK-MEL-5 melanoma): > 100 µM
TGI (SK-OV-3 ovarian): > 100 µM
TGI (SN12C renal): > 100 µM
TGI (SNB-19 CNS): > 100 µM
TGI (SNB-75 CNS): > 100 µM
TGI (SR leukemia): > 100 µM
TGI (SW-620 colon): > 100 µM
TGI (T-47D breast): > 100 µM
TGI (TK-10 renal): > 100 µM
TGI (UACC-257 melanoma): > 100 µM
TGI (UACC-62 melanoma): > 100 µM
TGI (UO-31 renal): > 100 µM

CC(=O)OCCCCCn1cnc(C(N)=O)c1N
GI50 (SNB-75 CNS): 87.1 µM

COCCn1cc(-c2csc(-c3c[nH]c4ccc(F)cc34)n2)c2cccnc21
GI50 (786-0 renal): 5.12 µM
TGI (786-0 renal): > 100 µM
GI50 (A498 renal): 3.26 µM
TGI (A498 renal): 9.4 µM
GI50 (A549 NSCLC): 4.51 µM
TGI (A549 NSCLC): > 100 µM
GI50 (ACHN renal): 5.27 µM
TGI (ACHN renal): > 100 µM
GI50 (BT-549 breast): 4.26 µM
TGI (BT-549 breast): > 100 µM
GI50 (CAKI-1 renal): 9.54 µM
TGI (CAKI-1 renal): > 100 µM
GI50 (COLO 205 colon): 2.69 µM
TGI (COLO 205 colon): > 100 µM
GI50 (DU-145 prostate): 18.8 µM
TGI (DU-145 prostate): > 100 µM
GI50 (EKVX NSCLC): 1.98 µM
TGI (EKVX NSCLC): > 100 µM
GI50 (HCC-2998 colon): 4.54 µM
TGI (HCC-2998 colon): > 100 µM
GI50 (HCT-116 colon): 3.77 µM
TGI (HCT-116 colon): > 100 µM
GI50 (HCT-15 colon): 2.35 µM
TGI (HCT-15 colon): > 100 µM
GI50 (HOP-62 NSCLC): 2.02 µM
TGI (HOP-62 NSCLC): > 100 µM
GI50 (HOP-92 NSCLC): 6.28 µM
TGI (HOP-92 NSCLC): > 100 µM
GI50 (HS 578T breast): 8.82 µM
TGI (HS 578T breast): > 100 µM
GI50 (HT29 colon): 2.9 µM
TGI (HT29 colon): > 100 µM
GI50 (IGROV1 ovarian): 3.49 µM
TGI (IGROV1 ovarian): > 100 µM
GI50 (K-562 leukemia): 2.12 µM
TGI (K-562 leukemia): > 100 µM
GI50 (KM12 colon): 1.77 µM
TGI (KM12 colon): > 100 µM
GI50 (LOX IMVI melanoma): 3.44 µM
TGI (LOX IMVI melanoma): > 100 µM
GI50 (M14 melanoma): 3.14 µM
TGI (M14 melanoma): > 100 µM
GI50 (MALME-3M melanoma): 4.54 µM
TGI (MALME-3M melanoma): > 100 µM
GI50 (MCF7 breast): 2.09 µM
TGI (MCF7 breast): > 100 µM
GI50 (MDA-MB-231 breast): 2.59 µM
TGI (MDA-MB-231 breast): > 100 µM
GI50 (MDA-MB-435): 0.89 µM
TGI (MDA-MB-435): 14.3 µM
GI50 (MOLT-4 leukemia): 5.56 µM
TGI (MOLT-4 leukemia): > 100 µM
GI50 (NCI-H23 lung): 3.88 µM
TGI (NCI-H23 lung): > 100 µM
GI50 (NCI-H460 lung): 3.38 µM
TGI (NCI-H460 lung): > 100 µM
GI50 (NCI-H522 lung): 2.19 µM
TGI (NCI-H522 lung): > 100 µM
GI50 (NCI/ADR-RES ovarian): 2.17 µM
TGI (NCI/ADR-RES ovarian): 29.2 µM
GI50 (OVCAR-3 ovarian): 3.34 µM
TGI (OVCAR-3 ovarian): > 100 µM
GI50 (OVCAR-4 ovarian): 2.59 µM
TGI (OVCAR-4 ovarian): > 100 µM
GI50 (OVCAR-5 ovarian): 10.1 µM
TGI (OVCAR-5 ovarian): > 100 µM
GI50 (OVCAR-8 ovarian): 4.1 µM
TGI (OVCAR-8 ovarian): > 100 µM
GI50 (PC-3 prostate): 5.07 µM
TGI (PC-3 prostate): > 100 µM
GI50 (RXF 393 renal): 5.91 µM
TGI (RXF 393 renal): > 100 µM
GI50 (SF-268 CNS): 7.67 µM
TGI (SF-268 CNS): > 100 µM
GI50 (SF-295 CNS): 3.2 µM
TGI (SF-295 CNS): > 100 µM
GI50 (SF-539 CNS): 8.86 µM
TGI (SF-539 CNS): > 100 µM
GI50 (SK-MEL-2 melanoma): 3.89 µM
TGI (SK-MEL-2 melanoma): > 100 µM
GI50 (SK-MEL-28 melanoma): 7.73 µM
TGI (SK-MEL-28 melanoma): > 100 µM
GI50 (SK-MEL-5 melanoma): 2.69 µM
TGI (SK-MEL-5 melanoma): > 100 µM
GI50 (SN12C renal): > 100 µM
TGI (SN12C renal): > 100 µM
GI50 (SNB-19 CNS): 98 µM
TGI (SNB-19 CNS): > 100 µM
GI50 (SNB-75 CNS): 2.97 µM
TGI (SNB-75 CNS): > 100 µM
GI50 (SR leukemia): 3.24 µM
TGI (SR leukemia): > 100 µM
GI50 (SW-620 colon): 3.63 µM
TGI (SW-620 colon): > 100 µM
GI50 (U251 CNS): 5.14 µM
TGI (U251 CNS): > 100 µM
GI50 (UACC-62 melanoma): 6.78 µM
TGI (UACC-62 melanoma): > 100 µM
GI50 (UO-31 renal): 4.41 µM
TGI (UO-31 renal): > 100 µM

Cc1cccc(-c2cc(=O)c3c(C)ccnc3[nH]2)c1
TGI (786-0 renal): > 100 µM
TGI (A498 renal): > 100 µM
TGI (A549 NSCLC): > 100 µM
TGI (ACHN renal): > 100 µM
TGI (BT-549 breast): > 100 µM
TGI (CAKI-1 renal): > 100 µM
TGI (CCRF-CEM leukemia): > 100 µM
TGI (COLO 205 colon): 2.68 µM
TGI (DU-145 prostate): > 100 µM
TGI (EKVX NSCLC): > 100 µM
TGI (HCC-2998 colon): 11.1 µM
TGI (HCT-116 colon): > 33.5 µM
TGI (HCT-15 colon): > 100 µM
TGI (HL-60(TB) leukemia): 0.703 µM
TGI (HOP-62 NSCLC): > 100 µM
TGI (HS 578T breast): > 100 µM
TGI (HT29 colon): > 100 µM
TGI (IGROV1 ovarian): > 100 µM
TGI (K-562 leukemia): > 100 µM
TGI (KM12 colon): 16.8 µM
TGI (LOX IMVI melanoma): > 100 µM
TGI (M14 melanoma): > 100 µM
TGI (MCF7 breast): > 42.2 µM
TGI (MDA-MB-231 breast): > 100 µM
TGI (MOLT-4 leukemia): > 100 µM
TGI (NCI-H226 lung): > 100 µM
TGI (NCI-H23 lung): > 100 µM
TGI (NCI-H460 lung): 16.3 µM
TGI (NCI-H522 lung): 0.798 µM
TGI (OVCAR-4 ovarian): > 100 µM
TGI (OVCAR-5 ovarian): > 100 µM
TGI (OVCAR-8 ovarian): > 100 µM
TGI (PC-3 prostate): > 100 µM
TGI (RPMI-8226 leukemia): 26.1 µM
TGI (RXF 393 renal): > 100 µM
TGI (SF-268 CNS): > 100 µM
TGI (SF-539 CNS): > 100 µM
TGI (SK-MEL-2 melanoma): > 100 µM
TGI (SK-MEL-28 melanoma): > 100 µM
TGI (SK-MEL-5 melanoma): 27.8 µM
TGI (SK-OV-3 ovarian): > 100 µM
TGI (SN12C renal): > 100 µM
TGI (SNB-75 CNS): > 100 µM
TGI (T-47D breast): > 100 µM
TGI (TK-10 renal): > 100 µM
TGI (U251 CNS): > 100 µM
TGI (UACC-62 melanoma): > 100 µM
